From PubChem BioAssay (NCI)
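Tested at 5 concentrations; 48 h exposure; 96-well plates; endpoints linearly interpolated, else capped at highest concentration. TGI is the concentration that stops growth completely.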

How the values were obtained:
Experiment in all cases: NCI-60 cell line screen, 48 h
HOP-62 NSCLC = test system: HOP-62 NSCLC
786-0 renal = test system: 786-0 renal
U251 CNS = test system: U251 CNS
NCI-H460 lung = test system: NCI-H460 lung
UO-31 renal = test system: UO-31 renal
MDA-MB-435 = test system: MDA-MB-435
IGROV1 ovarian = test system: IGROV1 ovarian
A549 NSCLC = test system: A549 NSCLC
SR leukemia = test system: SR leukemia
HCT-116 colon = test system: HCT-116 colon
NCI-H522 lung = test system: NCI-H522 lung
MDA-MB-231 breast = test system: MDA-MB-231 breast
SK-OV-3 ovarian = test system: SK-OV-3 ovarian
A498 renal = test system: A498 renal
EKVX NSCLC = test system: EKVX NSCLC
SW-620 colon = test system: SW-620 colon
SNB-19 CNS = test system: SNB-19 CNS
MALME-3M melanoma = test system: MALME-3M melanoma
HS 578T breast = test system: HS 578T breast
MDA-N = test system: MDA-N

Structure (SMILES)	TGI (HOP-62 NSCLC) [µM]	TGI (786-0 renal) [µM]	TGI (U251 CNS) [µM]	TGI (NCI-H460 lung) [µM]	TGI (UO-31 renal) [µM]	TGI (MDA-MB-435) [µM]	TGI (IGROV1 ovarian) [µM]	TGI (A549 NSCLC) [µM]	TGI (SR leukemia) [µM]	TGI (HCT-116 colon) [µM]	TGI (NCI-H522 lung) [µM]	TGI (MDA-MB-231 breast) [µM]	TGI (SK-OV-3 ovarian) [µM]	TGI (A498 renal) [µM]	TGI (EKVX NSCLC) [µM]	TGI (SW-620 colon) [µM]	TGI (SNB-19 CNS) [µM]	TGI (MALME-3M melanoma) [µM]	TGI (HS 578T breast) [µM]	TGI (MDA-N) [µM]
N#Cc1nc(C(CO)N(Cc2ccccc2)C(=O)O)oc1N (configuration not stated)	> 100	> 100	> 100	> 100	> 100	> 100	> 100	> 100	> 100	> 100	> 100	> 100	> 100	> 100	> 100					
CC(=O)O[C@H]1C(=O)[C@@]2(C)[C@H]([C@H](OC(=O)c3ccccc3)[C@]3(O)C[C@H](OC(=O)[C@H](O)[C@@H](NC(=O)C(C)(C)C)c4ccccc4)C(C)=C1C3(C)C)[C@]1(OC(C)=O)CO[C@@H]1C[C@@H]2O	> 10	> 5.47	> 3.9	> 10		0.034	> 10	> 10	> 2.58	> 3.23	0.105	> 10	0.368		> 10	> 10	> 10	> 10	0.389	
CC(=O)c1cccc(NC(=O)C(=O)Nn2c(N)nnc2N)c1	> 100	> 100	> 100	> 100	> 100		> 100	> 100	> 100	> 100	> 100		> 100	> 100	> 100	> 100	> 100	> 100		
COc1cc(/C=C\c2cccnc2)cc(OC)c1OC	> 100	> 100	> 100	> 100	> 100		> 100	> 100		> 100	96.3				> 100	> 100	> 100	> 100		
COC(=O)/C=C(/OC)[C@H](C)[C@H](/C=C/c1csc(-c2csc(C(C)C)n2)n1)OC	> 100	> 100	> 100	> 100	> 100	> 100	> 100	> 100	> 100	> 100	> 100	> 100	> 100	> 100	> 100	> 100	> 100	> 100	> 100	
COc1cc(/C=C2\C(=O)N(C(=O)c3ccc(NC(C)=O)cc3)N=C2C)ccc1O	> 100	> 100		> 100	> 100			> 100	> 100	> 100	> 100				> 100	> 100	> 100	> 100		
O=c1[nH]cnc2c1CCCN2	> 100	> 100	> 100		> 100		> 100	> 100	> 100	> 100	> 100		> 100		> 100	> 100	> 100	> 100		
NCCC(=O)N[C@@H](Cc1cc(O)c(O)c(SCC(NC(=O)CC[C@H](N)C(=O)O)C(=O)NCC(=O)O)c1)C(=O)O (some centres not stated)	> 50	> 50	> 50	> 50	> 50	> 50	> 50	> 50		> 50	> 50	> 50	> 50	> 50	> 50	> 50	> 50	> 50		> 50
Cc1nn(-c2nc3ccccc3s2)c2c1C(=O)c1ccccc1-2	> 100	> 100	> 100	> 100	> 100		> 100	> 100	> 100	> 100	> 100		> 100	> 100	> 100	> 100	> 100	> 100		
CCOc1ccc(NC(=O)C2=C(C)NC(C)=C(C(=O)Nc3ccc(OCC)cc3)C2c2ccccc2)cc1	> 100	> 100	> 100	> 100	> 100		> 100	> 100			> 100		> 100	> 100	> 100	> 100	> 100	> 100		
CN1Cc2cc3c(cc2-c2ccccc21)OCO3		> 100	> 100	> 100	> 100		> 100	> 100	> 100	> 100	> 100			> 100	> 100	> 100	> 100			
